Key:
[1] = system: wheat pink snow mold microorganism (Microdochium nivale); experiment: Antimicroorganism effect, mycelial extension on PDA plate; format: cell-based; conditions: PDA plate medium, 50 mg/l, 1 to 3 days, read-out: growth inhibition grade
[2] = system: wheat eye spot microorganism (Pseudocercosporella herpotrichoides); experiment: as above; format: cell-based; conditions: Oculimacula yallundae, PDA plate medium, 50 mg/l, 1 to 3 days, read-out: growth inhibition grade
[3] = system: rice blast microorganism (Pyricularia oryzae); experiment: microbe, parasite or virus in culture; format: cell-based; conditions: read-out: growth inhibition grade
[4] = system: ricesheath blight microorganism (Rhizoctonia solani); experiment: Antimicroorganism effect, mycelial extension on PDA plate; format: cell-based; conditions: PDA plate medium, 50 mg/l, 1 to 3 days, read-out: growth inhibition grade
[5] = system: penicillium microorganism (Penicillium sp.); experiment: as above; format: cell-based; conditions: PDA plate medium, 50 mg/l, 1 to 3 days, read-out: growth inhibition grade
[6] = system: apple alternaria blotch microorganism (Alternaria alternata); experiment: as above; format: cell-based; conditions: PDA plate medium, 50 mg/l, 1 to 3 days, read-out: growth inhibition grade
[7] = system: wheat stagonospora blotch microorganism (Phaeosphaeria nodorum); experiment: as above; format: cell-based; conditions: Parastagonospora nodorum, PDA plate medium, 50 mg/l, 1 to 3 days, read-out: growth inhibition grade
[8] = system: rice bakanae disease microorganism (Giberella fujikuroi); experiment: as above; format: cell-based; conditions: PDA plate medium, 50 mg/l, 1 to 3 days, read-out: growth inhibition grade
[9] = system: barley loose smut microorganism (Ustilago nuda); experiment: as above; format: cell-based; conditions: PDA plate medium, 50 mg/l, 1 to 3 days, read-out: growth inhibition grade
[10] = system: wheat fusarium blight microorganism (Fusarium graminearum); experiment: microbe, parasite or virus in culture; format: cell-based; conditions: read-out: growth inhibition grade
[11] = system: barley scald microorganism (Rhynchosporium secalis); experiment: Antimicroorganism effect, mycelial extension on PDA plate; format: cell-based; conditions: PDA plate medium, 50 mg/l, 1 to 3 days, read-out: growth inhibition grade
[12] = system: Curvularia microorganism (Curvularia sp.); experiment: as above; format: cell-based; conditions: PDA plate medium, 50 mg/l, 1 to 3 days, read-out: growth inhibition grade
[13] = system: gray mold microorganism (Botritis cinerea); experiment: as above; format: cell-based; conditions: PDA plate medium, 50 mg/l, 1 to 3 days, read-out: growth inhibition grade
[14] = system: Aureobasidium microorganism (Aureobasidium sp.); experiment: as above; format: cell-based; conditions: PDA plate medium, 50 mg/l, 1 to 3 days, read-out: growth inhibition grade
[15] = system: wood denaturing microorganism (Coriolus versicolor); experiment: as above; format: cell-based; conditions: Trametes versicolor, PDA plate medium, 50 mg/l, 1 to 3 days, read-out: growth inhibition grade
[16] = system: Aspergillus microorganism (Aspergillus sp.); experiment: as above; format: cell-based; conditions: PDA plate medium, 50 mg/l, 1 to 3 days, read-out: growth inhibition grade
[17] = system: rice seedling blight microorganism (Rhizopus) (Rhizopus oryzae); experiment: as above; format: cell-based; conditions: Rhizopus arrhizus, PDA plate medium, 50 mg/l, 1 to 3 days, read-out: growth inhibition grade
[18] = system: sclerotinia rot microorganism (Sclerotinia sclerotiorum); experiment: as above; format: cell-based; conditions: PDA plate medium, 50 mg/l, 1 to 3 days, read-out: growth inhibition grade
[19] = system: sugar beet cercospora leaf spot microorganism (Cercospora beticola); experiment: as above; format: cell-based; conditions: PDA plate medium, 50 mg/l, 1 to 3 days, read-out: growth inhibition grade
[20] = system: wood denaturing microorganism (Tyromyces palustris); experiment: as above; format: cell-based; conditions: PDA plate medium, 50 mg/l, 1 to 3 days, read-out: growth inhibition grade
[21] = system: citrous blue mold microorganism (Penicillium italicum); experiment: as above; format: cell-based; conditions: PDA plate medium, 50 mg/l, 1 to 3 days, read-out: growth inhibition grade
[22] = system: Tricoderma microorganism (Trichoderma sp.); experiment: as above; format: cell-based; conditions: PDA plate medium, 50 mg/l, 1 to 3 days, read-out: growth inhibition grade
[23] = system: cucumber fusarium wilt microorganism (Fusarium oxysporum); experiment: as above; format: cell-based; conditions: PDA plate medium, 50 mg/l, 1 to 3 days, read-out: growth inhibition grade
[24] = system: Mucor microorganism (Mucor sp.); experiment: as above; format: cell-based; conditions: PDA plate medium, 50 mg/l, 1 to 3 days, read-out: growth inhibition grade
[25] = system: wheat take-all microorganism (Gaeumannomyces graminis); experiment: as above; format: cell-based; conditions: PDA plate medium, 50 mg/l, 1 to 3 days, read-out: growth inhibition grade
[26] = system: wheat septoria bloth microorganism (Septoria tritici); experiment: as above; format: cell-based; conditions: Zymoseptoria tritici, PDA plate medium, 50 mg/l, 1 to 3 days, read-out: growth inhibition grade
[27] = system: anthracnose microorganism (Glomerella cingulata); experiment: as above; format: cell-based; conditions: Colletotrichum gloeosporioides, PDA plate medium, 50 mg/l, 1 to 3 days, read-out: growth inhibition grade
[28] = system: Cladosporium microorganism (Cladosporium sp.); experiment: as above; format: cell-based; conditions: PDA plate medium, 50 mg/l, 1 to 3 days, read-out: growth inhibition grade
[29] = system: barley stripe microorganism (Pyrenophora graminea); experiment: as above; format: cell-based; conditions: PDA plate medium, 50 mg/l, 1 to 3 days, read-out: growth inhibition grade
[30] = system: cucumber gray mold microorganism; experiment: Cucumber gray mold preventing effect assay; format: in vivo, Botrytis cinerea; conditions: analogous assay at 25 mg/l
Description: The sprayed leaves were air-dried, and loaded with a paper disc (8 mm in diameter) soaked with a spore suspension of a cucumber gray mold microorganism, and kept at 20 degrees C. and a high humidity. 4 Days after inoculation, the cucumber gray mold severity was investigated, and the protective value was calculated by the following equation. [table]

SMILES	melting point	inhibition at 50 µg/mL [1]	inhibition at 50 µg/mL [2]	inhibition at 50 µg/mL [3]	inhibition at 50 µg/mL [4]	inhibition at 50 µg/mL [5]	inhibition at 50 µg/mL [6]	inhibition at 50 µg/mL [7]	inhibition at 50 µg/mL [8]	inhibition at 50 µg/mL [9]	inhibition at 50 µg/mL [10]	inhibition at 50 µg/mL [11]	inhibition at 50 µg/mL [12]	inhibition at 50 µg/mL [13]	inhibition at 50 µg/mL [14]	inhibition at 50 µg/mL [15]	inhibition at 50 µg/mL [16]	inhibition at 50 µg/mL [17]	inhibition at 50 µg/mL [18]	inhibition at 50 µg/mL [19]	also measured
OC1(Cn2cncn2)C(Cc2cccc(Cl)c2)CCC12CC2 (single isomer, unassigned) [Compound I-4, 5-(3-chlorobenzyl)-4-(1H-1,2,4-triazol-1-ylmethyl)-4-spiro[2.4]heptanol]	120 to 121 °C																				
CC1(C)CC12CCC(Cc1ccc(Cl)cc1)C2(O)Cn1cncn1 (centres unmarked) [Compound I-101, 5-(4-chlorobenzyl)-1,1-dimethyl-4-(1H-1,2,4-triazol-1-ylmethyl)-4-spiro[2.4]heptanol]		70 to 90%	> 90%	> 90%	70 to 90%	> 90%	70 to 90%	> 90%	> 90%	70 to 90%	> 90%	> 90%	70 to 90%	> 90%	70 to 90%	> 90%	> 90%	70 to 90%	> 90%	> 90%	inhibition at 50 µg/mL [20]: > 90%; inhibition at 50 µg/mL [21]: > 90%; inhibition at 50 µg/mL [22]: > 90%; inhibition at 50 µg/mL [23]: > 90%; inhibition at 50 µg/mL [24]: 70 to 90%; inhibition at 50 µg/mL [25]: > 90%; inhibition at 50 µg/mL [26]: > 90%; inhibition at 50 µg/mL [27]: > 90%; inhibition at 50 µg/mL [28]: > 90%; inhibition at 50 µg/mL [29]: > 90%
OC1(Cn2cncn2)C(Cc2ccc(Cl)cc2)CCC12CC2 (single isomer, unassigned) [Compound I-1, 5-(4-chlorobenzyl)-4-(1H-1,2,4-triazol-1-ylmethyl)-4-spiro[2.4]heptanol]	85.5 to 87 °C	70 to 90%	> 90%	> 90%	70 to 90%	> 90%	70 to 90%	> 90%	> 90%	70 to 90%	> 90%	> 90%	70 to 90%	> 90%	70 to 90%	> 90%	> 90%	70 to 90%	> 90%	> 90%	Controlling value [30]: 100%; activity compared with Compound (A) [30]: higher activity; inhibition at 50 µg/mL [20]: > 90%; inhibition at 50 µg/mL [21]: > 90%; inhibition at 50 µg/mL [22]: > 90%; inhibition at 50 µg/mL [23]: > 90%; inhibition at 50 µg/mL [24]: 70 to 90%; inhibition at 50 µg/mL [25]: > 90%; inhibition at 50 µg/mL [26]: > 90%; inhibition at 50 µg/mL [27]: > 90%; inhibition at 50 µg/mL [28]: > 90%; inhibition at 50 µg/mL [29]: > 90%
OC1(Cn2cncn2)C(Cc2ccc(F)cc2)CCC12CC2 (single isomer, unassigned) [Compound I-7, 5-(4-fluorobenzyl)-4-(1H-1,2,4-triazol-1-ylmethyl)-4-spiro[2.4]heptanol]	89 to 90 °C	70 to 90%	> 90%	> 90%	70 to 90%	> 90%	70 to 90%	> 90%	> 90%	70 to 90%	> 90%	> 90%	70 to 90%	> 90%	70 to 90%	> 90%	> 90%	70 to 90%	> 90%	> 90%	inhibition at 50 µg/mL [20]: > 90%; inhibition at 50 µg/mL [21]: > 90%; inhibition at 50 µg/mL [22]: > 90%; inhibition at 50 µg/mL [23]: > 90%; inhibition at 50 µg/mL [24]: 70 to 90%; inhibition at 50 µg/mL [25]: > 90%; inhibition at 50 µg/mL [26]: > 90%; inhibition at 50 µg/mL [27]: > 90%; inhibition at 50 µg/mL [28]: > 90%; inhibition at 50 µg/mL [29]: > 90%
